Measured values as given in patent publication US11014947B2, “Lipophenol compounds and uses thereof” (INSTITUT NATIONAL DE LA SANTE ET DE LA RECHERCHE MEDICALE …, priority 2014, dated 2021).
Read-outs that look alike come from different tables or passages of the source.

What was measured:
ARPE-19 cell lines [1] = conditions: for % Survival: untreated cells = 100; for cell survival: text summary of Table 1, AtR 25 μM
Method: The biological assay is based on the measure of cell survival after treatment with the lipophenol prior incubation (pre-incubation process) with the carbonyl stressor AtR. The toxic AtR concentration (25 μM) was determined to reduce cell survival by 60 to 70%. Results are expressed as % of cell survival in treated (lipophenol/all-trans-retinal) vs untreated cells (taken as 100%).
ARPE-19 cells were settled in 96-well plates (3×10^4 cells/well) and cultured 24 h to reach confluence before drug treatment. Cell cultures received a serum-free medium containing drugs at different concentrations (10-40 μM) for one hour and trans-retinal (25 μM) was added for 4 more hours before rinsing with medium. The viability of cells in triplicate samples was determined 16-20 h after with a MTT colorimetric assay. After 2 h incubation with 0.5 mg/ml MU, insoluble purple formazan produced was dissolved in DMSO. The absorbance at 570 nm and 655 nm of individual wells was measured by a microplate reader (BioRad 550).

complexes CI and CII = test: Mitochondrial respiration in ARPE-19 cell line (oxygraph); assay type: cell-based
Text: Oxidative stress originates from physiological reactions taking place practically inside each cell of an organism. The production of reactive oxygen species (ROS) accompanies, for example, oxidative phosphorylation-derived ATP-based energy metabolism which takes place in the mitochondria of a cell. Under physiological conditions, ROS are neutralized by effective enzymatic and non-enzymatic defense mechanisms, contributing to the maintenance of a proper balance. However, an excess of ROS, resulting from their overproduction in pathophysiological conditions, will disturb the equilibrium and lead eventually to deleterious consequences for the cell. Maeda et al. (JBC 284(22), 2009) have reported that atRal impairs mitochondrial oxidative phosphorylation. Therefore, mitochondrial respiration was measured in ARPE-19 cell line using oxygraph after exposure to 25 μM atRal and/or 40 μM 13b (FIG. 3).

ARPE-19 cell lines [2] = test: ARPE-19 cell survival, co-treatment with atRAL 25 μM; assay type: cell-based
Method: Co-treatment were performed with lipophenols onto ARPE-19 (FIG. 4). Incubation for 4 h with atRAL decreased cell viability to 35%. The protection of ARPE-19 by phloroglucinol (PG) was dose-dependent but weak (less than 10%). In contrast, most of the PG derivatives were more protective, in particular the presence of two or three DHA linked to PG provided a strong protection (up to 73% survival), as well as the mono-alkylation (methyl and isopropyl) were sufficient to protect 60% of cells. PG-OiP-DHA was confirmed to be among the most efficient (74%).

ARPE-19 = test: atRAL-induced cell death, Annexin V-FITC / propidium iodide flow cytometry; assay type: cell-based; conditions: 4 h
Method: Further investigations were made to define the atRAL-induced cell death (apoptotic versus necrotic) and validate the protective effect of PG-OiP-DHA (FIG. 6). Cells were incubated for 4 h with atRAL 25 μM, PG-OiP-DHA (compound 13b) 40 μM, or both. Treated ARPE-19 were labeled with Annexin V-FITC (A) and propidium iodide (PI) to separate by flow cytometry healthy cells (no labeling), early apoptosis (A+ and PI−) and necrotic cells (A+ and PI+). In CTL or PG-OiP-DHA-treated cells only 6 to 10% died. After 4 h atRAL, cell death reached 46%, mainly at necrotic stage (41%).

RPE primary cells [3] = test: Primary RPE cultures, pre-treatment 24 h, atRAL 25 μM 4 h, cell viability assay; assay type: cell-based; conditions: atRAL 25 μM 4 h (FIG. 8)
Method: b. Pre-treatment 24 h, atRAL 25 μM 4 h; cell viability assay

[4] = system: mitochondrial respiratory chain (MRC) complex; test: Mitochondrial respiratory chain complex enzymatic activities and protein expression; assay type: cell-based; conditions: atRAL treatment with PG-OiP-DHA (FIG. 5, FIG. 14)
Text: In a cellular context, PG-OiP-DHA (compound 13b) has been shown able to partially restore mitochondrial oxidative respiration impaired by the atRAL (example 10). Because this repair might be produced by targeting the whole oxidative chain or each individual respiratory complex, this potency was further investigated by measuring the intrinsic activity of each mitochondrial respiratory chain (MRC) complex (enzymology) and their level of protein expression (FIG. 5). […] This was supported by the loss of MRC protein expression.
Several experiments were made to validate the efficacy of PG-OiP-DHA in the protection of the mitochondrial activity (FIG. 14).

RPE primary cells [5] = test: Primary RPE cultures, pre-treatment 24 h, H2O2 450 μM 2 h, cell viability assay; assay type: cell-based; conditions: H2O2 450 μM 2 h (FIG. 7)
Method: a. Pre-treatment 24 h, H2O2 450 μM 2 h; cell viability assay

[6] = system: neural retina cell cultures; test: Cytoprotection in neural retina cell cultures exposed to atRal (MTT); assay type: cell-based; conditions: 13b 10 to 100 μM, atRal 50-75-100 μM added 1 h after, 4 h co-incubation
Method: The effect of compound 13b on cell viability was examined after co-incubation with atRal. Cell cultures were incubated with 13b (10 to 100 μM) and atRal (50-75-100 μM) was added 1 h after for a 4 h co-incubation. Cells were then cultured in serum-free medium for 16-20 h and their viability was determined with a MTT assay.

RPE primary cells [7] = test: Primary RPE cultures, co-incubation 4 h with atRAL 25 μM, cell viability assay; assay type: cell-based; conditions: co-incubation 4 h with atRAL 25 μM (FIG. 9)
Method: c. Co-incubation 4 h with atRAL 25 μM; cell viability assay
To compare the anti-carbonyl efficacies of phloroglucinol (22% gain of survival) and PG-OiP-DHA (69%) in a condition to probe their scavenging properties in primary RPE cells (FIG. 9).

[8] = compound 10 μM 1 h, then AtR 25 μM 4 h, MTT after 16-20 h
[9] = compound 40 μM 1 h, then AtR 25 μM 4 h, MTT after 16-20 h
[10] = co-incubation atRAL 25 μM + PG-OiP-DHA 40 μM

CC1=C(/C=C/C(C)=C/C=C/C(C)=C/C=O)C(C)(C)CCC1 [AtR, all-trans-retinal, reference compound]
% Survival (ARPE-19 cell lines [1]; AtR 25 μM alone): 29.1 ± 5.4% | inhibition of the activity of complexes CI and CII (complexes CI and CII; 25 μM atRal alone): strongly inhibits | cell viability (ARPE-19 cell lines [2]; atRAL 25 μM alone, 4 h): 35% | cell death (ARPE-19; atRAL 25 μM alone): 46% | necrotic stage cells (ARPE-19; atRAL 25 μM alone): 41%

CC/C=C\C/C=C\C/C=C\C/C=C\C/C=C\C/C=C\CCC(=O)Oc1cc(OC(=O)CC/C=C\C/C=C\C/C=C\C/C=C\C/C=C\C/C=C\CC)cc(OC(=O)CC/C=C\C/C=C\C/C=C\C/C=C\C/C=C\C/C=C\CC)c1 [Compound 8, (4,4′,4″,7,7′,7″,10,10′,10″,13,13′,13″,16,16′,16″,19,19′,19″Z)-benzene-1,3,5-triyl tridocosa-4,7,10,13,16,19-hexaenoate]
% Survival (ARPE-19 cell lines [1]; [8]): 33.3 ± 4.1% | % Survival (ARPE-19 cell lines [1]; [9]): 47.7 ± 3.2% | cell survival (ARPE-19 cell lines [1]): 50%

CC(C)Oc1cc(O)cc(O)c1 [Compound 9b, 5-isopropoxybenzene-1,3-diol, reference compound]
% Survival (ARPE-19 cell lines [1]; [8]): 30.6 ± 1.2% | % Survival (ARPE-19 cell lines [1]; [9]): 32.7 ± 1.8%

CC/C=C\C/C=C\C/C=C\C/C=C\C/C=C\C/C=C\CCC(=O)Oc1cc(O)cc(OC)c1 [Compound 13a, (4,7,10,13,16,19 Z)-3-hydroxy-5-methoxyphenyl docosa-4,7,10,13,16, 19-hexaenoate]
% Survival (ARPE-19 cell lines [1]; [8]): 32.6 ± 3.7% | % Survival (ARPE-19 cell lines [1]; [9]): 44.9 ± 1.9% | cell survival (ARPE-19 cell lines [1]): as active as 8

CC/C=C\C/C=C\C/C=C\C/C=C\C/C=C\C/C=C\CCC(=O)Oc1cc(O)cc(OC(C)C)c1 [Compound 13b, (4,7,10,13,16,19 Z)-3-hydroxy-5-isopropoxyphenyl docosa-4,7,10,13,16,19-hexaenoate]
gain of survival (anti-carbonyl efficacy) (RPE primary cells [3]): 42% | % Survival (ARPE-19 cell lines [1]; [8]): 43.2 ± 7.5% | % Survival (ARPE-19 cell lines [1]; [9]): 66.8 ± 8.6% | preservation of complex II and IV enzymatic activities affected by atRAL [4]: significantly preserved | gain of survival (anti-oxidant efficacy) (RPE primary cells [5]): 20% | reversal of atRal inhibition of complexes CI and CII (complexes CI and CII; 40 μM 13b with 25 μM atRal): partially reverse this inhibition | inhibition of the activity of each complex by the compound alone (complexes CI and CII; 40 μM 13b, no atRal): no significant inhibition | survival (ARPE-19 cell lines [2]; co-treatment with atRAL 25 μM 4 h, doses 5-80 μM (FIG. 4)): 74% | reversal of atRal cytotoxicity [6]: robustly reversed | necrotic cells (ARPE-19; [10]): 16% | total cell death (ARPE-19; [10]): 18% | gain of survival (anti-carbonyl efficacy, scavenging) (RPE primary cells [7]): 69%

CC/C=C\C/C=C\C/C=C\C/C=C\C/C=C\C/C=C\CCC(=O)Oc1ccc(/C=C/c2cc(O)cc(O)c2)cc1 [Compound 20, (4,7,10,13,16,19 Z)-4-((E)-3,5-dihydroxyphenylstyryl)phenyl docosa-4,7,10,13,16,19-hexaenoate]
protective effect (ARPE-19 cell lines [2]; co-treatment with atRAL 25 μM 4 h (FIG. 4)): very potent

CC/C=C\C/C=C\C/C=C\C/C=C\C/C=C\C/C=C\CCC(=O)O [DHA, docosahexaenoic acid, reference compound]
% Survival (ARPE-19 cell lines [1]; [8]): 23.5 ± 2.7% | % Survival (ARPE-19 cell lines [1]; [9]): 7.3 ± 5.0%

Oc1cc(O)cc(O)c1 [Phloroglucinol, phloroglucinol, reference compound]
gain of survival (anti-carbonyl efficacy) (RPE primary cells [3]): 18% | increase of RPE cell survival (ARPE-19 cell lines [1]; 40 μM, AtR 25 μM): 10% | % Survival (ARPE-19 cell lines [1]; [8]): 35.5 ± 3.3% | % Survival (ARPE-19 cell lines [1]; [9]): 41.6 ± 9.2% | gain of survival (anti-oxidant efficacy) (RPE primary cells [5]): 10% | protection of ARPE-19 (ARPE-19 cell lines [2]; co-treatment with atRAL 25 μM, doses 5-80 μM): less than 10% | gain of survival (anti-carbonyl efficacy, scavenging) (RPE primary cells [7]): 22%
